Columns and labels:
[1] = target: Myosin light chain kinase 2, skeletal/cardiac muscle (Homo sapiens) (UniProt Q9H1R3); assay: Inhibition of N-terminal GST-fused full length human skMLCK (1 to 596 residues) expressed in baculovirus expression system using MLCtide as substrate at 1 uM in presence of ATP by Mobility shift assay
[2] = target: Casein kinase I isoform gamma-3 (Homo sapiens) (UniProt Q9Y6M4); assay: Inhibition of N-terminal GST-fused full length human CK1gamma3 (1 to 447 residues) expressed in baculovirus expression system using CKtide as substrate at 1 uM in presence of ATP by Mobility shift assay
Casein kinase I isoform gamma-3 (Homo sapiens), sequence (Q9Y6M4 whole entry, looked up, the tested form may be a part, canonical isoform): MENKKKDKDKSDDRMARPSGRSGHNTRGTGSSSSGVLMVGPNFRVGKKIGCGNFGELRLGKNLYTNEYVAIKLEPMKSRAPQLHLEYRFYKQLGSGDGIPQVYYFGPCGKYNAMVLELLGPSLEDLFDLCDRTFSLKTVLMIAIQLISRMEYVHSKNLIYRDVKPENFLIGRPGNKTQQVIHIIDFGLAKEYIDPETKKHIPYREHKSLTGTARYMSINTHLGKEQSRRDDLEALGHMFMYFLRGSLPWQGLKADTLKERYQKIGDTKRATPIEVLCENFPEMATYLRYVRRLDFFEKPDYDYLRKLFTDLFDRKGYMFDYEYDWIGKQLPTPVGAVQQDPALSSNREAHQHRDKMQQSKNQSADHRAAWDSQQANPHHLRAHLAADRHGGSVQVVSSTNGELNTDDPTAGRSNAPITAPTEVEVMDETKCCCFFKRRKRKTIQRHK

[3] = target: Tyrosine-protein kinase ABL1 (Homo sapiens) (UniProt P00519); assay: Inhibition of N-terminal His-tagged wild type human ABL (2 to 1130 residues) expressed in baculovirus-infected Sf21 cells using ABLtide as substrate at 1 uM in presence of ATP by Mobility shift assay
Tyrosine-protein kinase ABL1 (Homo sapiens), sequence (P00519 whole entry, the tested form may be a part): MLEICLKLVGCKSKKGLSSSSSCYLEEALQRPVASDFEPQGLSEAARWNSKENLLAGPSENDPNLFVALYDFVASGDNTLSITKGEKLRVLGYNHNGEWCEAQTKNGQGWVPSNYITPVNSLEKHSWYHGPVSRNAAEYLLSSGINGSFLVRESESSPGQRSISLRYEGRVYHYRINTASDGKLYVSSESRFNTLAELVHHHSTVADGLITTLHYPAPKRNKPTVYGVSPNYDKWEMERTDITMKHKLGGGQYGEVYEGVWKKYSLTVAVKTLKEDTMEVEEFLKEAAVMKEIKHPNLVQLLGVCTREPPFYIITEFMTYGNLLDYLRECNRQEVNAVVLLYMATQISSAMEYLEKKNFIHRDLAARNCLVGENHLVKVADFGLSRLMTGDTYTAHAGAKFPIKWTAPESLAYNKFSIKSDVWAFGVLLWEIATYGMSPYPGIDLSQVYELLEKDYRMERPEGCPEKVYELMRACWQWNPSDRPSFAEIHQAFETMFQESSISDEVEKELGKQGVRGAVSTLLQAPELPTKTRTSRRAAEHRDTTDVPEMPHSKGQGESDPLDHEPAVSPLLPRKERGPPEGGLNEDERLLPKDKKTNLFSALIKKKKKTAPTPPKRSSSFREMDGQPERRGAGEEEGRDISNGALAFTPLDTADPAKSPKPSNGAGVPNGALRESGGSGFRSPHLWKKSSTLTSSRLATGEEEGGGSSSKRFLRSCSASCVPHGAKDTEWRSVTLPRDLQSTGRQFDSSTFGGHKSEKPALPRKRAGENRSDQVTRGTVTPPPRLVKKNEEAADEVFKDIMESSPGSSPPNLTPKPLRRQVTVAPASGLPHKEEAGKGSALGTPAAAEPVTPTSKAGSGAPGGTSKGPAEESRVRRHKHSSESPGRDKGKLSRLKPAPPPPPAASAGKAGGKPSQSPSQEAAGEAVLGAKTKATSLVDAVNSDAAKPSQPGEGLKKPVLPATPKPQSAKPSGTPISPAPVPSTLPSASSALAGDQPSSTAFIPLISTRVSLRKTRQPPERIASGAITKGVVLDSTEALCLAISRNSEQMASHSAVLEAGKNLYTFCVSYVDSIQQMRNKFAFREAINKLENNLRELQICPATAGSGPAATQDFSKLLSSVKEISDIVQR

[4] = target: Calcium/calmodulin-dependent protein kinase type 1 (Homo sapiens) (UniProt Q14012); assay: Inhibition of N-terminal GST-tagged full length human CAMK1a (1 to 370 residues) expressed in baculovirus-infected Sf21 cells using GS peptide as substrate at 1 uM in presence of ATP by Mobility shift assay
[5] = target: Insulin receptor (Homo sapiens) (UniProt P06213); assay: Inhibition of N-terminal fused human INSR catalytic domain (1005 to 1310 residues) expressed in baculovirus-infected Sf21 cells using IRS1 as substrate at 1 uM in presence of ATP by Mobility shift assay
[6] = target: Muscle, skeletal receptor tyrosine-protein kinase (Homo sapiens) (UniProt O15146); assay: Inhibition of N-terminal GST-fused human MUSK catalytic domain (527 to 869 residues) expressed in baculovirus-infected Sf21 cells using CSKtide as substrate at 1 uM in presence of ATP by Mobility shift assay
[7] = target: Tyrosine-protein kinase BTK (Homo sapiens) (UniProt Q06187); assay: Inhibition of N-terminal GST-fused full length human BTK (2 to 659 residues) expressed in baculovirus infected Sf21 cells using Srctide as substrate at 1 uM in presence of ATP by Mobility shift assay
[8] = target: CDK4/Cyclin D3 (Homo sapiens) (UniProt P11802+P30281); assay: Inhibition of N-terminal GST-tagged full length human CDK4 (1 to 303 residues)/N-terminal GST-tagged human CyclinD3 (1 to 292 residues) expressed in baculovirus-infected Sf21 cells using DYRKtide-F as substrate at 1 uM in presence of ATP by Mobility shift assay
[9] = target: Sphingosine kinase 2 (Homo sapiens) (UniProt Q9NRA0); assay: Inhibition of N-terminal GST-fused full length human SPHK2 (1 to 618 residues) expressed in baculovirus expression system using Sphingosine as substrate at 1 uM in presence of ATP by Mobility shift assay
[10] = target: Activated CDC42 kinase 1 (Homo sapiens) (UniProt Q07912); assay: Inhibition of N-terminal GST-fused wild type human ACK catalytic domain (110 to 476 residues) expressed in baculovirus-infected Sf21 cells using WASP peptide as substrate at 1 uM in presence of ATP by Mobility shift assay
Activated CDC42 kinase 1 (Homo sapiens), sequence (Q07912 whole entry, looked up, the tested form may be a part): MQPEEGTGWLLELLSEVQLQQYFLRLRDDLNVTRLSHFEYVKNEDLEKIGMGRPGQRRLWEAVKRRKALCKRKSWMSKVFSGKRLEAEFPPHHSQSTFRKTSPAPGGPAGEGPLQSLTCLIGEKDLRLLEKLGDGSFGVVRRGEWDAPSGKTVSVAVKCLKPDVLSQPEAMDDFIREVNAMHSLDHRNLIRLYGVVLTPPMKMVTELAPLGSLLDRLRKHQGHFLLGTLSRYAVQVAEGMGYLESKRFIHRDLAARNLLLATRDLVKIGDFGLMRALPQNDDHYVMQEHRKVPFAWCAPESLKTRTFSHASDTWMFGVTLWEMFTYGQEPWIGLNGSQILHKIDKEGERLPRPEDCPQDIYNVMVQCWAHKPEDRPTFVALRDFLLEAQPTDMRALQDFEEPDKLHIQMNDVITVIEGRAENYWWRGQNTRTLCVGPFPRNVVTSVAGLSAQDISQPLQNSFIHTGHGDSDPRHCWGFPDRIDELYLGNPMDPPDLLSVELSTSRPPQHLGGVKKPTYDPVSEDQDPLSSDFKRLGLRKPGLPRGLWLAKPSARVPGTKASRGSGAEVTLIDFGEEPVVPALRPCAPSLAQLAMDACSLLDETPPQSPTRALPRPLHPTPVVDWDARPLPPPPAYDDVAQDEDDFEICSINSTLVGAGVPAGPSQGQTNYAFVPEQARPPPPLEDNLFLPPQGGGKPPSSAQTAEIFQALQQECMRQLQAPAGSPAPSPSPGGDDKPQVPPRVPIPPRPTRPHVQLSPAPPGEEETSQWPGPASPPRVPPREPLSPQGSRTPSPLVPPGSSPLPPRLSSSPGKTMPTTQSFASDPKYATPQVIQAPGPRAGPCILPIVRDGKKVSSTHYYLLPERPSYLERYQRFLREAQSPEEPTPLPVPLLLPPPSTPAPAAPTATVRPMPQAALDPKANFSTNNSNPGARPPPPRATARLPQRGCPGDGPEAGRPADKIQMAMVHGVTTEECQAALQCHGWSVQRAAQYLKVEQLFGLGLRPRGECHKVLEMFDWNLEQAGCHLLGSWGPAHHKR

[11] = target: Insulin-like growth factor 1 receptor (Homo sapiens) (UniProt P08069); assay: Inhibition of N-terminal GST-fused human IGF1R cytoplasmic domain (959 to 1367 residues) expressed in baculovirus-infected Sf21 cells using IRS1 as substrate at 1 uM in presence of ATP by Mobility shift assay
[12] = target: Serine/threonine-protein kinase Sgk1 (Homo sapiens) (UniProt O00141); assay: Inhibition of N-terminal GST-tagged truncated human SGK (61 to 431 residues) expressed in baculovirus expression system using SGKtide as substrate at 1 uM in presence of ATP by Mobility shift assay
Serine/threonine-protein kinase Sgk1 (Homo sapiens), sequence (O00141 whole entry, the tested form may be a part): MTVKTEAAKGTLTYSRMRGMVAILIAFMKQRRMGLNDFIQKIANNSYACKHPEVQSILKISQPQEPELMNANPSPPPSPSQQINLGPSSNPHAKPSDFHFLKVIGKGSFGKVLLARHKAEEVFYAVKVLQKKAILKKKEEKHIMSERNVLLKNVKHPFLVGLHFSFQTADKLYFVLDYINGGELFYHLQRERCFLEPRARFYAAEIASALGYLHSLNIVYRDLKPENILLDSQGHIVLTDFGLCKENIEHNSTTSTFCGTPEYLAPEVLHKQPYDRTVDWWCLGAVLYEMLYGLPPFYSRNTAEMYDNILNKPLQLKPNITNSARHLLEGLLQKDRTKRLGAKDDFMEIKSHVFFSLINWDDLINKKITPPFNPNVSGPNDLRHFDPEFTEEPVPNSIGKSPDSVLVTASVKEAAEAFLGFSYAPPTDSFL

[13] = target: Ephrin type-B receptor 4 (Homo sapiens) (UniProt P54760); assay: Inhibition of N-terminal GST-fused human EPHB4 cytoplasmic domain (577 to 987 residues) expressed in baculovirus-infected Sf21 cells using Blk/Lyntide as substrate at 1 uM in presence of ATP by Mobility shift assay
[14] = target: Serine/threonine-protein kinase PLK2 (Homo sapiens) (UniProt Q9NYY3); assay: Inhibition of N-terminal GST-fused full length human PLK2 (1 to 685 residues) expressed in baculovirus expression system using CHK2 peptide as substrate at 1 uM in presence of ATP by IMAP
[15] = target: Tyrosine-protein kinase Lyn (Homo sapiens) (UniProt P07948); assay: Inhibition of N-terminal GST-tagged full length human LynB(1 to 491 residues ) expressed in baculovirus-infected Sf21 cells using Srctide as substrate at 1 uM in presence of ATP by Mobility shift assay
[16] = target: Mast/stem cell growth factor receptor Kit (Homo sapiens) (UniProt P10721); assay: Inhibition of N-terminal GST-tagged human KIT cytoplasmic domain (544 to 976 residues) expressed in baculovirus-infected Sf21 cells using Srctide as substrate at 1 uM in presence of ATP by Mobility shift assay
Mast/stem cell growth factor receptor Kit (Homo sapiens), sequence (P10721 whole entry, the tested form may be a part): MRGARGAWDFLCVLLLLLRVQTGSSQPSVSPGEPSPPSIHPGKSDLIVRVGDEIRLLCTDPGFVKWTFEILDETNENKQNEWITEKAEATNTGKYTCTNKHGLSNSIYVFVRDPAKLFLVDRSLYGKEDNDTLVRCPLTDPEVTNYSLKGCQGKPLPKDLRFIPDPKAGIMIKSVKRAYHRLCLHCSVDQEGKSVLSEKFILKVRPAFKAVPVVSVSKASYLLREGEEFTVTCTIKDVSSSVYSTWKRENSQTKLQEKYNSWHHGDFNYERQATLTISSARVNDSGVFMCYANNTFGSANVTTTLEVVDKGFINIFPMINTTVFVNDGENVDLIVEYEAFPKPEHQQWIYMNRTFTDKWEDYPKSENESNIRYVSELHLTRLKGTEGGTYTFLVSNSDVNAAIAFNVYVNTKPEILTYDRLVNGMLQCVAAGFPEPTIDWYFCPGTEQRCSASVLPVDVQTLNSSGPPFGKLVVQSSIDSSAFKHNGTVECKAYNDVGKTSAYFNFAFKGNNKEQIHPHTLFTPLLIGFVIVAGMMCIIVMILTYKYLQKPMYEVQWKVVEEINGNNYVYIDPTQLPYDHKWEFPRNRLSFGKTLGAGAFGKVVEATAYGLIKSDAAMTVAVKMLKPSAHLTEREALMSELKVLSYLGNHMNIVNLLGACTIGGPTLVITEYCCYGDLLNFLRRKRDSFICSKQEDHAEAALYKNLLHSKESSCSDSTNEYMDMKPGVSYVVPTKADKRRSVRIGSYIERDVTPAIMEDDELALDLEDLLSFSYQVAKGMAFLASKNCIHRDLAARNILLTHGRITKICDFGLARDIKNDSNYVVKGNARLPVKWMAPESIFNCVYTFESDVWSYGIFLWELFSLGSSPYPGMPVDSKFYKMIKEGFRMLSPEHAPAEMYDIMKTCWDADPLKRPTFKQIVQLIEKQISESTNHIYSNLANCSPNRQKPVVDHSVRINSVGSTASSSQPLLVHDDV

[17] = target: Dual specificity protein kinase CLK3 (Homo sapiens) (UniProt P49761); assay: Inhibition of N-terminal GST-fused full length human CLK3 (1 to 490 residues) expressed in baculovirus expression system using DYRKtide-F as substrate at 1 uM in presence of ATP by Mobility shift assay
[18] = target: Ribosomal protein S6 kinase beta-2 (Homo sapiens) (UniProt Q9UBS0); assay: Inhibition of N-terminal GST-fused full length human p70S6Kbeta (1 to 482 residues) expressed in baculovirus expression system using S6K2 peptide as substrate at 1 uM in presence of ATP by Mobility shift assay
[19] = target: Dual specificity protein kinase CLK2 (Homo sapiens) (UniProt P49760); assay: Inhibition of N-terminal GST-fused full length human CLK2 (1 to 499 residues) expressed in baculovirus expression system using DYRKtide-F as substrate at 1 uM in presence of ATP by Mobility shift assay
Dual specificity protein kinase CLK2 (Homo sapiens), sequence (P49760 whole entry, looked up, the tested form may be a part): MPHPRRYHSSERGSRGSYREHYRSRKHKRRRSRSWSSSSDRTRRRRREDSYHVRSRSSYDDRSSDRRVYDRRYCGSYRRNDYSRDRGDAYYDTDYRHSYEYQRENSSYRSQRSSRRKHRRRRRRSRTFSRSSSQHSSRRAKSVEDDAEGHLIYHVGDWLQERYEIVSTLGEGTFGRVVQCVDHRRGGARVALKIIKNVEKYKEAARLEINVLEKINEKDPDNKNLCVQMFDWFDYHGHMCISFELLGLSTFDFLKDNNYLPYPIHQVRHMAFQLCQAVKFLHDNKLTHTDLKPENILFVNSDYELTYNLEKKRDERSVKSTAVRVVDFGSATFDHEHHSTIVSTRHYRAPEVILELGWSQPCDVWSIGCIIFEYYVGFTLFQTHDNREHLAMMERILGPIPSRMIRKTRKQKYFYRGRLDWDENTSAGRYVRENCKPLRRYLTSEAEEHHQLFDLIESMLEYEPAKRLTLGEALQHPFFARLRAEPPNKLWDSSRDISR

[20] = target: Insulin receptor-related protein (Homo sapiens) (UniProt P14616); assay: Inhibition of N-terminal fused human IRR cytoplasmic domain (953 to 1297 residues) expressed in baculovirus-infected Sf21 cells using IRS1 as substrate at 1 uM in presence of ATP by Mobility shift assay
[21] = target: Non-receptor tyrosine-protein kinase TNK1 (Homo sapiens) (UniProt Q13470); assay: Inhibition of N-terminal GST-tagged human TNK1 catalytic domain (106 to 390 residues) expressed in baculovirus-infected Sf21 cells using CSKtide as substrate at 1 uM in presence of ATP by Mobility shift assay
[22] = target: Casein kinase I isoform gamma-1 (Homo sapiens) (UniProt Q9HCP0); assay: Inhibition of N-terminal GST-fused full length human CK1gamma1 (1 to 422 residues) expressed in baculovirus expression system using CKtide as substrate at 1 uM in presence of ATP by Mobility shift assay
Casein kinase I isoform gamma-1 (Homo sapiens), sequence (Q9HCP0 whole entry, looked up, the tested form may be a part, canonical isoform): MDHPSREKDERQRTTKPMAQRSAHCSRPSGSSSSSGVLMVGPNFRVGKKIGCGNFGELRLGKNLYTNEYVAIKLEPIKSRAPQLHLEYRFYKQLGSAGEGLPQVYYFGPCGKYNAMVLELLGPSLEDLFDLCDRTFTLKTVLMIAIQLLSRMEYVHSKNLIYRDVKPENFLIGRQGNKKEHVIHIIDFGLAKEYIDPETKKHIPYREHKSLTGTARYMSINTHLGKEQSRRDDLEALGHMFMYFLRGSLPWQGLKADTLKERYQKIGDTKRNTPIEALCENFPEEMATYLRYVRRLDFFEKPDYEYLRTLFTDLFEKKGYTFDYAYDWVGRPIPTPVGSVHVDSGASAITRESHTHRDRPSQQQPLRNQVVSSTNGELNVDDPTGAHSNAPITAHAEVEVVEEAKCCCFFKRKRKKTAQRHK

SMILES | inhibition [1] | inhibition [2] | inhibition [3] | inhibition [4] | inhibition [5] | inhibition [6] | inhibition [7] | inhibition [8] | inhibition [9] | inhibition [10] | inhibition [11] | inhibition [12] | inhibition [13] | inhibition [14] | inhibition [15] | inhibition [16] | inhibition [17] | inhibition [18] | inhibition [19] | inhibition [20] | other results
Cc1cc(C)c(CNC(=O)c2cc(Br)c3c(c2C)O[C@@](C)([C@H]2CC[C@H](N(C)C)CC2)O3)c(=O)[nH]1 | 2.4% | 1.1% | -5.7% | 0.2% | 4.8% | -5.1% | -10% | -4.5% | 12.7% | 0.2% | -2.9% | -3% | -6.1% | 11.8% | -3.2% | -4.7% | -2% | 2.1% | -1.6% | -8.8% | inhibition [21]: -3.4%; inhibition [22]: 0.5%
Cc1cc(C)c(CNC(=O)c2cc(Cl)c3c(c2C)O[C@@](C)([C@H]2CC[C@H](N(C)C)CC2)O3)c(=O)[nH]1 [VALEMETOSTAT] | -1.6% | 0.5% | -8% | -2.8% | 0.1% | -5.5% | -9% | 2.1% | 8% | -1.2% | -4.5% | -4.2% | -4.7% | 4.8% | -4.3% | -5.6% | 1.6% | 5.2% | 2.5% | -4.6% | inhibition [21]: -6.8%; inhibition [22]: -1.8%
